Data taken from patent US20050227918A1, “Method for assaying susceptibility to cancer therapy in a subject by assaying for tumors of P53” (priority 2004, published 2005).
“Also recorded” adds a separate entry of the source. d = 2'-deoxy (DNA); r = 2'-OH (RNA)

Tests used:
p53 [1] = test: siRNA effect on steady state levels of p53 mutant in cells expressing 72P 173L or 72R 173L; assay type: cell-based; details: siRNA 10-100 μM as printed
Procedure: To investigate this small inhibitory RNA (“siRNA”) oligonucleotides were used. The sequences:
The siRNA oligos were transfected into cells, in amounts ranging from 10-100 μM, using commercially available reagents. The siRNA was introduced into cells expressing either the 72P 173L mutant or the 72R173L mutant. Both were shown, supra, to inhibit p73.

Saos-2 cells [2] = assay type: cell-based
Procedure: The Saos-2 cells which had been engineered to stably express 72R and 72P mutants were then tested, in assays designed to determine whether p53 siRNA impacted drug resistance. Saos-2 cells which expressed 72R173Lp53 were treated with 100 nM of siRNA for p53, or with the same amount of PGL siRNA. […] Survival was assessed via colony forming ability.

p53 [3] = test: siRNA and drug effect on p53 levels in squamous carcinoma cell lines (Western blotting); assay type: cell-based; details: head and neck squamous cells; siRNA 100 nM; doxorubicin 1 μg/ml, taxol 500 ng/ml, cisplatin 10 μg/ml; 24 hours
Procedure: After 24 hours, cell lysates were prepared and analyzed via Western blotting.

Hacat cells = test: Drug-induced apoptosis after p53 siRNA; assay type: cell-based; details: 100 nM siRNA, drugs 48 hours later
p53-p73 complexes = p53-p73 complexes and p73 in Hacat cells after siRNA and drug treatment; assay type: cell-based; details: 100 nM siRNA
Procedure: As a follow up to the work, supra, experiments were carried out to determine if the siRNA influenced association of the mutant p53 molecules with p73. […] Cell lysates were prepared after 24 hours, and p53-p73 complexes were analyzed, as described supra.

H1299 p53-/- cells = test: Flow cytometric analysis of apoptosis (sub-G1) and cell cycle in H1299 cells inducibly expressing 72R or 72P wild-type p53; assay type: cell-based, Human; details: for apoptosis (sub-G1 fraction), 72R versus 72P expressing cells: induced H1299, 5-FU 50 μg/ml, cisplatin, taxol, etoposide, doxorubicin; for apoptosis (sub-G1 fraction), 72R versus 72P expressing cells / difference in apoptosis between 72R and 72P: camptothecin 5 μM, 24 hours; for apoptosis and cell cycle effect on induction of 72P p53: H1299 induced to express 72P wild-type p53; for apoptosis and cell cycle effect on induction of 72P p53 / apoptosis and cell cycle effect on induction of 72R p53: cisplatin 1 μg/ml, taxol 500 ng/ml, flow cytometry after 24 hours; for apoptosis and cell cycle effect on induction of 72R p53: H1299 induced to express 72R wild-type p53; for difference in apoptosis between 72R and 72P: H1299 clones, doxorubicin 1 μg/ml
Excerpt: 72R and 72P wild-type p53 plasmids were constructed by subcloning the inserts from pArgSP53 and pProSP53 (See Matlashewski, et al., Mol. Cell. Biol., 7:961-963 (1987), incorporated by reference) into commercially available pTRE, resulting in pTRE 72R p53 and pTRE 72P p53 plasmids. Human H1299 p53−/− cells, which were maintained in DMEM+10% fetal bovine serum, were transfected with the pTRE 72R p53 and pTRE 72P p53 plasmids in accordance with standard procedures, resulting in H1299 cells lines which inducibly express 72R or 72P p53 protein. These cell lines were grown in DMEM 10% FCS supplemented with 0.5 mg/ml G418 and 0.5 μg/ml puromycin. Expression of 72R or 72P wild-type p53 was induced in H1299 cells by doxycycline or non-induced. […] Control cells were not exposed to drugs. Flow cytometric analysis was then performed after 24 hours as described in Bergamaschi et al., Cancer Cell, 3:387-402 (2003), incorporated by reference. A minimum of six independent 72R-inducible and 72P-inducible clones were analyzed, to obviate the effect of clonal variation.
Further tests examined the cellular responses to the anticancer agents camptothecin and 5-fluorouracil (FU). H1299 cells were induced to express equal levels of 72R or 72P wild-type p53, as described supra, or not induced. […] The cells were then exposed to camptothecin (5 μM) or 5-FU (50 μg/ml). Flow cytometric analysis was performed after 24 hours.
Three experiments were conducted, each analyzing two independent clones of 72R-expressing H1299 cells and two independent clones of 72P-expressing H1299 cells. […] Control cells were not exposed to drugs, and control cells for camptothecin and 5-FU received the drug vehicle only. After 24 hours, apoptosis was determined by flow cytometry as previously described.

p73 = test: Western blotting of endogenous p73 steady state levels following drug treatment; assay type: cell-based; details: 24 hours; for levels of p73 in HN30: head and neck squamous cell line HN30
Procedure: The squamous carcinoma cell lines (“SCC”) tested included cells of the head and neck, cervix, vulva, and immortalized skin […]. […] The cells were exposed to the drugs for 24 hours, after which they were harvested in a lysis buffer (50 mM Tris, 250 mM NaCl, 0.1% Nonidet NP-40, 5 mM EDTA, 1 mM PMSF, with a protease inhibitor cocktail). […] The immunoprecipitates were then resolved, on 10% polyacrylamide gels, and immunoblotted with the antibody, and a secondary anti-mouse light chain antibody conjugated to horseradish peroxidase, which was then visualized using standard methods.

Saos-2 cells [4] = test: Apoptosis (sub-G1) in Saos-2 cells expressing dominant-negative p73 inhibitors; assay type: cell-based; details: for sensitivity to apoptosis of Saos-2 cells expressing p73Δ2 and p73DD: dominant-negative p73 inhibitors; for sensitivity to apoptosis of Saos-2 lines expressing p73DD (L371P): inactive point mutation
Procedure: The Saos-2 cells were maintained, as described, supra, and cell lines stably expressing the dominant negative inhibitors were generated by transfection, and then cultivation in the presence of 400 μg/ml of G418. Isolated colonies were ring cloned, and then the expression of transfected sequences was confirmed.
The cells, when in exponential growth phase, received 10 μg of a plasmid encoding p73, and 3 μg of pcDNA3CD20. Twenty-four hours after transfection, cells were harvested, stained with propidiumiodide, and apoptosis was determined as percentage of sub-G1 cells.
In brief, this was determined by seeding 10^2-10^6 cells, in quadruplicate, onto 9 cm tissue culture dishes, and were treated, 24 hours later, for 2 hours, with cytotoxic drugs at various concentrations. Following drug exposure, the cells were grown until visible colonies appeared. They were then fixed in methanol, and stained with Giemsa. Survival was calculated relative to the cells receiving the drug vehicle alone.

H1299 cells = test: Colony-survival assays of H1299 cells expressing p53 variants; assay type: cell-based, Human
Procedure: The cytotoxicity of anticancer agents was determined in colony-survival assays of H1299 cells using standard protocols, following Bergamaschi, et al., supra, and as per the earlier examples. Briefly, H1299 cells were treated with doxycycline to induce p53 and plated at multiple densities. […] After drug exposure, cells were re-plated in drug free medium and grown until the appearance of visible colonies. Each drug exposure was done in triplicate in at least three experiments.
Further tests were performed to see if 46S influences cellular sensitivity to anticancer drugs in 72R-expressing cells.

p53 [5] = test: Western Blot analysis of p53 expression in transfected H1299 cells; assay type: cell-based, Human; details: cisplatin 1 μg/ml, 24 hours; each of the four variants 46A/46S 72R/72P
Procedure: H1299 cells were cotransfected with pcDNA3 CD20 and plasmids expressing 46A 72R, 46A 72P, 46S 72R, or 46S 72P wild-type p53 or with an empty vector (no p53, as a control), as described supra. […] After 24 hours, the cells were analyzed by flow cytometry. Western Blot analysis of p53 expression was also performed.

p53 siRNA: small inhibitory RNA oligonucleotides, SEQ ID NO: 1 CUACUUCCUGAAAACAACG(d)TT and SEQ ID NO: 2 CGUUGUUUUCAGGAAGUAGd(TT) (chain 1 CUACUUCCUGAAAACAACGTT; chain 2 CGUUGUUUUCAGGAAGUAGTT; sugars from the 5' end r19 d2, backbone not given here)
steady state levels of p53 polymorphic variants of the mutant (p53 [1]): dose dependent reduction | effect of siRNA on drug sensitivity, 143L mutant (Saos-2 cells [2]; Saos-2): similarly small effect | sensitivity to cisplatin and doxyrubicin of cell lines expressing 175H, 179Y, 179R, 245S, 248W, 249S, 273C and 282W (Saos-2 cells [2]; both polymorphic forms): increased sensitivity | p53 levels (p53 [3]): reduced steady state levels of p53; also recorded: downregulated | apoptosis after siRNA followed by anticancer drugs, compared to controls (Hacat cells): clear increase in apoptosis | amount of p53 which associated with p73 (p53-p73 complexes): clear decrease | increase in p73 production associated with drug exposure (p53-p73 complexes): not affected

O=c1[nH]cc(F)c(=O)[nH]1 [5-FU, 5-fluorouracil]
apoptosis (sub-G1 fraction), 72R versus 72P expressing cells (H1299 p53-/- cells): apoptosis was always higher in cells expressing the 72R p53 variant

CC(=O)O[C@H]1C(=O)[C@@]2(C)[C@H]([C@H](OC(=O)c3ccccc3)[C@]3(O)C[C@H](OC(=O)[C@H](O)[C@@H](NC(=O)c4ccccc4)c4ccccc4)C(C)=C1C3(C)C)[C@]1(OC(C)=O)CO[C@@H]1C[C@@H]2O [taxol]
apoptosis and cell cycle effect on induction of 72P p53 (H1299 p53-/- cells): minimal apoptosis but predominantly G1 arrest | apoptosis and cell cycle effect on induction of 72R p53 (H1299 p53-/- cells): increased sub-G1 fraction and a smaller G1 peak | levels of p73 in HN30 (p73): increased the levels of p73 | p53 levels (p53 [3]): unaffected | sensitivity to apoptosis of Saos-2 cells expressing p73Δ2 and p73DD (Saos-2 cells [4]): less sensitive to apoptosis | sensitivity to apoptosis of Saos-2 lines expressing p73DD (L371P) (Saos-2 cells [4]): sensitivity similar to control Saos-2 cells

CC[C@@]1(O)C(=O)OCc2c1cc1n(c2=O)Cc2cc3ccccc3nc2-1 [camptothecin]
difference in apoptosis between 72R and 72P (H1299 p53-/- cells): twofold | apoptosis (sub-G1 fraction), 72R versus 72P expressing cells (H1299 p53-/- cells): apoptosis was always higher in cells expressing the 72R p53 variant

N.N.[Cl][Pt][Cl] [cisplatin]
apoptosis and cell cycle effect on induction of 72P p53 (H1299 p53-/- cells): minimal apoptosis but predominantly G1 arrest | apoptosis and cell cycle effect on induction of 72R p53 (H1299 p53-/- cells): increased sub-G1 fraction and a smaller G1 peak | sensitivity of cells expressing 46A 72P p53 versus 46S 72P p53 (H1299 cells): similar | levels of p73 in HN30 (p73): increased the levels of p73 | p53 levels (p53 [3]): unaffected | sensitivity to apoptosis of Saos-2 cells expressing p73Δ2 and p73DD (Saos-2 cells [4]): less sensitive to apoptosis | sensitivity to apoptosis of Saos-2 lines expressing p73DD (L371P) (Saos-2 cells [4]): sensitivity similar to control Saos-2 cells | levels of p53 protein after treatment (p53 [5]): increased

COc1cccc2c1C(=O)c1c(O)c3c(c(O)c1C2=O)C[C@@](O)(C(=O)CO)C[C@@H]3O[C@H]1C[C@H](N)[C@H](O)[C@H](C)O1 [doxorubicin]
difference in apoptosis between 72R and 72P (H1299 p53-/- cells): eightfold | cytotoxic effect in cells expressing 46A 72R p53 relative to 46S 72R p53 (H1299 cells): diminished | sensitivity of cells expressing 46A 72P p53 versus 46S 72P p53 (H1299 cells): similar | p73 level, all cell lines (p73; 1 μg/ml doxorubicin, squamous carcinoma cell lines and Saos-2): increased p73 in all cell lines | levels of p73 in HN30 (p73): increased the levels of p73 | p53 levels (p53 [3]): unaffected | sensitivity to apoptosis of Saos-2 cells expressing p73Δ2 and p73DD (Saos-2 cells [4]): less sensitive to apoptosis | sensitivity to apoptosis of Saos-2 lines expressing p73DD (L371P) (Saos-2 cells [4]): sensitivity similar to control Saos-2 cells
